Experimental data: ChEMBL document CHEMBL1127639, “Structural features important for sigma 1 receptor binding” (J Med Chem, 1994)

Experiment: Binding affinity against [3H]-3-PPP labelled sigma sites

## CN(CCc1ccccc1)CCN1CCCC1
  Ki: 7.4 nM
